One assay relates to frog. Briefly: Evaluated for relative potency in stimulating melanosome dispersion against Frog skin melanophores (Rana pipiens). It is filed as functional.
The test system of another assay is lizard. Briefly: Evaluated for relative potency in stimulating melanosome dispersion against Lizard skin (Anolis carolinensis). Type of assay: functional.

Four compounds from ChEMBL document CHEMBL1122427, “Structure-activity studies of highly potent cyclic [Cys4,Cys10]Melanotropin analogues” (J Med Chem, 1983) can be followed below.

Each structure is given as a SMILES string.

With `CC(=O)N[C@@H]1CSSC[C@H](C(=O)N[C@H](CCCCN)C(=O)N2CCC[C@@H]2C(=O)N[C@@H](C(N)=O)C(C)C)NC(=O)[C@@H](Cc2c[nH]c3ccccc23)NC(=O)[C@H](CCCN=C(N)N)NC(=O)[C@@H](Cc2ccccc2)NC(=O)[C@H](Cc2c[nH]cn2)NC(=O)[C@@H](CCC(=O)O)NC1=O`, the Relative potency with frog worked out at 10000; with lizard, 1.6.

`CC(=O)N[C@@H]1CSSC[C@H](C(N)=O)NC(=O)[C@@H](Cc2c[nH]c3ccccc23)NC(=O)[C@H](CCCN=C(N)N)NC(=O)[C@@H](Cc2ccccc2)NC(=O)[C@H](Cc2c[nH]cn2)NC(=O)[C@@H](CCC(=O)O)NC1=O`: the Relative potency in the assay on frog is 0.07; with lizard it was 0.003.

Take `CSCC[C@H](NC(C)=O)C(=O)N[C@@H](CCC(=O)O)C(=O)N[C@@H](Cc1c[nH]cn1)C(=O)N[C@@H](Cc1ccccc1)C(=O)N[C@@H](CCCN=C(N)N)C(=O)N[C@@H](Cc1c[nH]c2ccccc12)C(=O)NCC(N)=O`: the values for the Relative potency in the assay with frog and with lizard were 0.0006 and 0.02, respectively.

For the compound `CC(=O)N[C@@H](CO)C(=O)N[C@@H](Cc1ccc(O)cc1)C(=O)N[C@@H](CO)C(=O)N[C@@H]1CSSC[C@H](C(=O)N[C@H](CCCCN)C(=O)N2CCC[C@@H]2C(=O)N[C@@H](C(N)=O)C(C)C)NC(=O)[C@@H](Cc2c[nH]c3ccccc23)NC(=O)[C@H](CCCN=C(N)N)NC(=O)[C@@H](Cc2ccccc2)NC(=O)[C@H](Cc2c[nH]cn2)NC(=O)[C@@H](CCC(=O)O)NC1=O`, the Relative potency in the assay on frog turned out to be 10000; with lizard, 32.
